Source: ChEMBL document CHEMBL6182912, “Development of Novel Phthalazinone-Triazole Hybrids as Potential Antidiabetic Agents Targeting GLUT4 Translocation in Skeletal Muscle” (J Med Chem, 2025)
Calls of active or inactive are those of the source. The calls are words filed in the database; no cut-off is given here.

Columns and labels:
[1] = target: T1, Solute carrier family 2, facilitated glucose transporter member 4 (Rattus norvegicus) (UniProt P19357); test: Modulation of GLUT4 translocation in rat L6-GLUT4myc skeletal muscle cells assessed as increase in surface GLUT4myc level by measuring fold stimulation at 10 uM measured after 16 hrs by O-phenylenediamine assay relative to control; type: cell-based; conditions: filed as modulator
T1 sequence (whole entry): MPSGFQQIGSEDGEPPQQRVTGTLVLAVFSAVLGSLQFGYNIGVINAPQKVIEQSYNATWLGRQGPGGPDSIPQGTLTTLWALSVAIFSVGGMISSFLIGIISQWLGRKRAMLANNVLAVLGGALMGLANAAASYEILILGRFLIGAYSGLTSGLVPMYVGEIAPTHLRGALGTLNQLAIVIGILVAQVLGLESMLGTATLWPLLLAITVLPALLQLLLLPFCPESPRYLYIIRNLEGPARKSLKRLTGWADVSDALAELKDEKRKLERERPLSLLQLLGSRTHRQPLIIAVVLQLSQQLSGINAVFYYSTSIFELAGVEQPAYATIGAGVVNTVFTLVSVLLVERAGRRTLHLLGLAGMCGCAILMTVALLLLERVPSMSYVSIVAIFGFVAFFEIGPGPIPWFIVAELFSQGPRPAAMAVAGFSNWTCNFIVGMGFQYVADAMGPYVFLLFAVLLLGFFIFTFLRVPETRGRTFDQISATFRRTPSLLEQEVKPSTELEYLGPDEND

[2] = target: T1, Solute carrier family 2, facilitated glucose transporter member 4 (Rattus norvegicus); test: Modulation of GLUT4 translocation in rat L6-GLUT4myc skeletal muscle cells assessed as increase in surface GLUT4myc level by measuring fold stimulation at 500 uM measured after 16 hrs by O-phenylenediamine assay relative to control; type: cell-based; conditions: filed as modulator
Rattus norvegicus [3] = test: Anti-hyperglycemic effect in STZ-induced diabetic male Sprague-Dawley rat assessed as reduction in blood glucose level at 300 mg/kg, po measured after 5 hrs relative to control; type: functional; design: scale not given: the % may be the effect or the level left
[4] = target: T1, Solute carrier family 2, facilitated glucose transporter member 4 (Rattus norvegicus); test: Modulation of GLUT4 translocation in rat L6-GLUT4myc skeletal muscle cells assessed as increase in surface GLUT4myc level measured after 16 hrs by O-phenylenediamine assay; type: cell-based; conditions: filed as modulator, dose 5-25 µM
[5] = Stability in rat plasma assessed as compound remaining measured after 120 mins by UPLC analysis; type: ADME, cell-free; conditions: read-out: Stability
[6] = Stability in SGF at pH 1.2 assessed as compound remaining measured after 120 mins by UPLC analysis; type: physicochemical; conditions: read-out: Stability
[7] = target: T1, Solute carrier family 2, facilitated glucose transporter member 4 (Rattus norvegicus); test: Modulation of insulin-stimulated GLUT4 translocation in rat L6-GLUT4myc skeletal muscle cells assessed as increase in AKT phosphorylation Ser473 at 10 uM pretreated with compound and wortmannin for 16 hrs followed by insulin addition measured after 10 mins by Western blot analysis; type: cell-based; conditions: time 970.0 min
[8] = target: T1, Solute carrier family 2, facilitated glucose transporter member 4 (Rattus norvegicus); test: Modulation of GLUT4 translocation in rat L6-GLUT4myc skeletal muscle cells assessed as increase in AMPK-alpha phosphorylation at Thr172 at 10 uM incubated for 16 hrs by Western blot analysis; type: cell-based; conditions: filed as modulator
L6-GLUT4myc [9] = test: Effect on IRS1 mRNA level in rat L6-GLUT4myc at 10 uM incubated for 16 hrs by RT-PCR analysis; type: functional, cell-based
[10] = target: T1, Solute carrier family 2, facilitated glucose transporter member 4 (Rattus norvegicus); test: Modulation of insulin-stimulated GLUT4 translocation in rat L6-GLUT4myc skeletal muscle cells assessed as increase in AKT phosphorylation Ser473 at 10 uM pretreated with compound for 16 hrs followed by insulin addition measured after 10 mins by Western blot analysis; type: cell-based; conditions: filed as modulator, time 970.0 min
Rattus norvegicus [11] = test: Anti-hyperglycemic effect in STZ-induced diabetic male Sprague-Dawley rat assessed as reduction in blood glucose level at 100 mg/kg, po; type: functional, organism-based; conditions: time 30-300 min
[12] = target: T1, Solute carrier family 2, facilitated glucose transporter member 4 (Rattus norvegicus); test: Modulation of GLUT4 translocation in rat L6-GLUT4myc skeletal muscle cells assessed as increase in GLUT4 mRNA level at 10 uM incubated for 16 hrs by RT-PCR analysis; type: cell-based; conditions: filed as modulator
Rattus norvegicus [13] = test: Anti-hyperglycemic effect in STZ-induced diabetic male Sprague-Dawley rat assessed as reduction in blood glucose level at 100 mg/kg, po measured after 5 hrs relative to control; type: functional; design: scale not given: the % may be the effect or the level left
[14] = Stability in SPF at pH 7.4 assessed as compound remaining measured after 120 mins by UPLC analysis; type: physicochemical; conditions: read-out: Stability
[15] = Stability in SIF at pH 6.8 assessed as compound remaining measured after 120 mins by UPLC analysis; type: physicochemical; conditions: read-out: Stability
L6-GLUT4myc [16] = test: Effect on AKT2 mRNA level in rat L6-GLUT4myc at 10 uM incubated for 16 hrs by RT-PCR analysis; type: functional, cell-based
[17] = target: T1, Solute carrier family 2, facilitated glucose transporter member 4 (Rattus norvegicus); test: (§1) Modulation of insulin-stimulated GLUT4 translocation in rat L6-GLUT4myc skeletal muscle cells assessed as increase in surface GLUT4myc level at 10 uM pretreated with compound and wortmannin for 16 hrs and cultured final 3 hrs of compound treatment in serum-starved medium followed by insulin addition measured after 20 mins by O-phenylenediamine assay; type: cell-based; conditions: time 980.0 min
[18] = target: T1, Solute carrier family 2, facilitated glucose transporter member 4 (Rattus norvegicus); test: as §1, with “overnight” for “and wortmannin for 16 hrs”; type: cell-based; conditions: filed as modulator
[19] = target: T1, Solute carrier family 2, facilitated glucose transporter member 4 (Rattus norvegicus); test: Modulation of GLUT4 translocation in rat L6-GLUT4myc skeletal muscle cells assessed as increase in surface GLUT4myc level by measuring fold stimulation at 1 mM measured after 1 hr by O-phenylenediamine assay relative to control; type: cell-based; conditions: filed as modulator
[20] = target: T1, Solute carrier family 2, facilitated glucose transporter member 4 (Rattus norvegicus); test: as §1, with “50 nM” for “10 uM”, “compound” for “compound and wortmannin”; type: cell-based; conditions: time 980.0 min
[21] = target: T1, Solute carrier family 2, facilitated glucose transporter member 4 (Rattus norvegicus); test: Modulation of insulin-stimulated GLUT4 translocation in rat L6-GLUT4myc skeletal muscle cells assessed as increase in AKT phosphorylation Ser473 pretreated with compound for 16 hrs followed by insulin addition measured after 10 mins by Western blot analysis; type: cell-based; conditions: time 970.0 min

Row | Structure (SMILES) | fold change (FC) [1] | also measured
1 | O=C(NCc1cn(-c2ccc(F)cc2)nn1)c1cc(Cc2n[nH]c(=O)c3ccccc23)ccc1F | 1.98 | 
2 | O=C(OCc1cn(-c2ccc(F)cc2)nn1)c1ccc(Cc2n[nH]c(=O)c3ccccc23)cc1 | 0.99 | 
3 | O=C(OCc1cn(-c2ccccc2)nn1)c1cc(Cc2n[nH]c(=O)c3ccccc23)ccc1F |  | fold change (FC) [2]: 0.97
4 | CN(C)C(=N)NC(=N)N [METFORMIN] |  | Activity (Rattus norvegicus [3]): 64.7%; fold change (FC) [2]: 1.65
5 | O=C(OCc1cn(-c2ccc(Br)cc2)nn1)c1ccc(Cc2n[nH]c(=O)c3ccccc23)cc1 | 1.54 | 
6 | C#CCNC(=O)c1ccc(Cc2n[nH]c(=O)c3ccccc23)cc1 | 1.17 | 
7 | O=C(NCc1cn(-c2ccccc2F)nn1)c1cc(Cc2n[nH]c(=O)c3ccccc23)ccc1F | 0.86 | 
8 | Cc1ccc(-n2cc(CNC(=O)c3cc(Cc4n[nH]c(=O)c5ccccc45)ccc3F)nn2)cc1 | 1.92 | Activity [4]: Dose-dependent-effect
9 | O=C(NCc1cn(-c2cccc3ccccc23)nn1)c1cc(Cc2n[nH]c(=O)c3ccccc23)ccc1F | 1.15 | 
10 | O=C(NCc1cn(-c2ccccc2)nn1)c1ccc(Cc2n[nH]c(=O)c3ccccc23)cc1F | 1.36 | 
11 | O=C(NCc1cn(-c2ccc(Cl)cc2)nn1)c1ccc(Cc2n[nH]c(=O)c3ccccc23)cc1 | 1.09 | 
12 | COc1ccc(OC)c(-n2cc(CNC(=O)c3cc(Cc4n[nH]c(=O)c5ccccc45)ccc3F)nn2)c1 | 1.29 | 
13 | Cc1ccc(-n2cc(CNC(=O)c3ccc(Cc4n[nH]c(=O)c5ccccc45)cc3)nn2)cc1 | 0.77 | 
14 | CC(C)c1ccc(-n2cc(COC(=O)c3cc(Cc4n[nH]c(=O)c5ccccc45)ccc3F)nn2)cc1 | 1.52 | 
15 | COc1cccc(OC)c1-n1cc(CNC(=O)c2cc(Cc3n[nH]c(=O)c4ccccc34)ccc2F)nn1 | 1.31 | 
16 | COc1ccc(-n2cc(CNC(=O)c3ccc(Cc4n[nH]c(=O)c5ccccc45)cc3)nn2)cc1 | 1.12 | 
17 | O=C(NCc1cn(-c2ccc(Cl)c(Cl)c2)nn1)c1cc(Cc2n[nH]c(=O)c3ccccc23)ccc1F | 1.49 | 
18 | O=C(NCc1cn(-c2ccc(C(F)(F)F)cc2)nn1)c1cc(Cc2n[nH]c(=O)c3ccccc23)ccc1F | 1.77 | 
19 | Cc1ccc(-n2cc(COC(=O)c3ccc(Cc4n[nH]c(=O)c5ccccc45)cc3)nn2)cc1 | 0.9 | 
20 | O=C(OCc1cn(-c2ccccc2)nn1)c1ccc(Cc2n[nH]c(=O)c3ccccc23)cc1 | 0.94 | 
21 | COc1ccccc1-n1cc(CNC(=O)c2cc(Cc3n[nH]c(=O)c4ccccc34)ccc2F)nn1 | 1.01 | 

Row | Structure (SMILES) | fold change (FC) [1] | also measured
22 | O=C(NCc1cn(-c2cccc(F)c2)nn1)c1cc(Cc2n[nH]c(=O)c3ccccc23)ccc1F | 0.84 | 
23 | O=C(OCc1cn(-c2ccc(Br)cc2)nn1)c1cc(Cc2n[nH]c(=O)c3ccccc23)ccc1F | 1.39 | 
24 | COc1cccc(-n2cc(CNC(=O)c3cc(Cc4n[nH]c(=O)c5ccccc45)ccc3F)nn2)c1 | 1.4 | 
25 | O=C(NCc1cn(-c2ccc(Br)cc2)nn1)c1cc(Cc2n[nH]c(=O)c3ccccc23)ccc1F | 1.87 | 
26 | O=C(NCc1cn(-c2ccc(Br)cc2)nn1)c1ccc(Cc2n[nH]c(=O)c3ccccc23)cc1 | 0.89 | 
27 | COc1cc(-n2cc(CNC(=O)c3cc(Cc4n[nH]c(=O)c5ccccc45)ccc3F)nn2)cc(OC)c1OC | 1.08 | 
28 | O=C(NCc1cn(-c2ccccc2)nn1)c1ccc(Cc2n[nH]c(=O)c3ccccc23)cc1 | 1.48 | 
29 | CC(C)c1ccc(-n2cc(CNC(=O)c3cc(Cc4n[nH]c(=O)c5ccccc45)ccc3F)nn2)cc1 | 1.1 | 
30 | COc1ccc(-n2cc(CNC(=O)c3cc(Cc4n[nH]c(=O)c5ccccc45)ccc3F)nn2)cc1 | 1.92 | Activity [4]: Dose-dependent-effect
31 | O=C(NCc1cn(-c2ccc(OC(F)(F)F)cc2)nn1)c1ccc(Cc2n[nH]c(=O)c3ccccc23)cc1 | 1.04 | 
32 | COc1ccc(-n2cc(COC(=O)c3cc(Cc4n[nH]c(=O)c5ccccc45)ccc3F)nn2)cc1 | 1.31 | 
33 | O=C(OCc1cn(-c2ccc(F)cc2)nn1)c1cc(Cc2n[nH]c(=O)c3ccccc23)ccc1F | 1.03 | 
34 | Cc1ccc(-n2cc(COC(=O)c3cc(Cc4n[nH]c(=O)c5ccccc45)ccc3F)nn2)cc1 | 0.98 | 
35 | O=C(NCc1cn(-c2ccc(F)cc2)nn1)c1ccc(Cc2n[nH]c(=O)c3ccccc23)cc1 | 1.11 | 
36 | O=C(NCc1cn(-c2ccc(OC(F)(F)F)cc2)nn1)c1cc(Cc2n[nH]c(=O)c3ccccc23)ccc1F | 1.59 | 
37 | O=C(NCc1cn(-c2ccc(Cl)cc2)nn1)c1cc(Cc2n[nH]c(=O)c3ccccc23)ccc1F | 1.53 | 
38 | O=C(NCc1cn(-c2ccccc2)nn1)c1cc(Cc2n[nH]c(=O)c3ccccc23)ccc1F | 1.93 | remaining at 2 h [5]: ≤ 60%; remaining at 2 h [6]: ≤ 60%; Activity [7]: inactive; Activity [8]: Active; Activity (L6-GLUT4myc [9]): No effect; Activity [4]: Dose-dependent-effect; Activity [10]: Active; Activity (Rattus norvegicus [11]): Time-dependent-effect; Activity [12]: Active; Activity (Rattus norvegicus [13]): ~38.7%; remaining at 2 h [14]: ≤ 60%; remaining at 2 h [15]: ≤ 60%; Activity (L6-GLUT4myc [16]): No effect; Activity [17]: inactive; Activity [18]: Active
39 | NC(=O)c1ncn([C@@H]2O[C@H](CO)[C@@H](O)[C@H]2O)c1N |  | fold change (FC) [19]: 1.56
40 | O=C(NCc1cn(-c2ccc(F)cc2F)nn1)c1cc(Cc2n[nH]c(=O)c3ccccc23)ccc1F | 1.75 | 
41 | COC[C@H]1OC(=O)c2coc3c2[C@@]1(C)C1=C(C3=O)[C@@H]2CCC(=O)[C@@]2(C)C[C@H]1OC(C)=O |  | Activity [20]: inactive; Activity [21]: inactive
42 | COc1cccc(Cl)c1-n1cc(CNC(=O)c2cc(Cc3n[nH]c(=O)c4ccccc34)ccc2F)nn1 | 1.14 | 
